# Values of other authors, collected in patent US8137579B2, “Non-aqueous heat transfer fluid and use thereof” (priority 1993, dated 2012).
# Read-outs that look alike come from different tables or passages of the source.
# Tests used:
# [1] = laboratory rats, single dose, acute oral
Structure (SMILES),"LD50 rating (laboratory rats; rat, in vivo, po) [mg/kg]",LD50 rating (laboratory rats; [1]) [mg/kg],"toxic level to humans, reported as low as (humans) [g/kg]"
OCCOCCOCCO [triethylene glycol],22000,–,–
CC(O)COC(C)COC(C)CO (stereo not drawn) [tripropylene glycol],3000,–,–
OCCOCCO [Diethylene glycol],–,16600,–
"CC(O)CO (stereo not drawn) [PG, propylene glycol]",–,33700,–
"OCCO [EG, ethylene glycol]",–,6100,0.398
